Entries after “also recorded” stand apart in the source; their conditions may differ.

For data set [1], the system named is AC16 human cardiomyocytes treated with AGEs. Briefly: CCK8 cell viability screening of candidate sequences in AGEs-treated cardiomyocytes. The data set is classed as cell-based. As to conditions: for protective effect on cardiomyocytes compared with DICAR-JP / relative cell viability / protective effect at around 48 h: 20 nM, CCK8; for protective effect on cardiomyocytes compared with DICAR-JP: 24 h transfection; for protective effect on cardiomyocytes compared with DICAR-JP / relative cell viability: AGEs 200 μg/mL for 24 h; for protective effect at around 48 h: AGEs 200 μg/mL for 48 h. How it is done: In this example, CCK8 assay was used to evaluate the protective activity of the candidate sequences against cardiomyocytes treated with advanced glycation end products (AGEs, purchased from Bioss®, Cat #bs-1158P), so as to select a small RNA with a better protective effect on cardiomyocytes. The method included the following steps:
Cell culture: AC16 human cardiomyocytes (purchased from Guangzhou Jennio Biotech Co., Ltd., derived from ATCC) were cultured in DMEM (High Glucose) Complete Medium (supplemented with 10% fetal bovine serum (FBS) and 1% […]) in a 5% CO2, 37° C. incubator.
Grouping: Control, AGEs (200 μg/mL, 24 h/48 h), negative control (NC, 20 nM, 24 h), DICAR-JP4 (20 nM, 24 h), DICAR-JP6 (20 nM, 24 h), DICAR-JP18 (20 nM, 24 h), DICAR-JP23 (20 nM, 24 h), DICAR-JP27 (20 nM, 24 h), DICAR-JP28 (20 nM, 24 h), DICAR-JP29 (20 nM, 24 h), DICAR-JP32 (20 nM, 24 h), DICAR-JP40 (20 nM, 24 h), DICAR-JP45 (20 nM, 24 h), and DICAR-JP (20 nM, 24 h).
Nucleic acid transfection method: Two microliters (μL) each of Lipofectamine® RNAi MAX (Thermo Fisher Scientific RNi MAX, Cat #13778-500) and DICAR-JPN were diluted with Opti-MEM® Medium (50 μL), respectively, and then the two reagents were mixed well and incubated at room temperature for 5 min. The Lipofectamine® RNAi MAX-DICAR-JPN complex was added to the AC16 cell supernatant (50 μL/well, 24 h) on a 24-well plate. Afterward, the complete medium was replaced with serum-free DMEM, and the cell cycle was synchronized for 2 h. AC16 cells were treated with 200 μg/mL AGEs for 24 and 48 h, respectively, and their viability was evaluated by CCK8 assay.
Evaluation of cell viability by CCK8 assay: The cells were washed twice with phosphate-buffered saline (PBS) in the dark, and serum-free DMEM supplemented with CCK8 (CCK8: DMEM=1:9) was added; the well plate was placed back into the cell culture incubator for further incubation for 1 h, and the absorbance was measured at 450 nm using a microplate reader. The cell viability (%) was calculated according to the following formula: Cell viability=[(A450nmExperiment−A450nmBlank)]/[(A450nmControl−A450nmBlank)]×100%, where the blank refers to the serum-free DMEM.

A further data set concerns ASC. Nature of the data set: Western blot of pyroptosis-related protein ASC in AGEs-treated AC16 cells. In kind it is cell-based, human. The settings on record: 40 nM, 24 h + AGEs 200 μg/mL, β-actin reference. The protocol: (§1) The DICAR-JP45 (40 nM) and DICAR-JP sequences were transfected into AC16 cell model for 24 h, respectively. The serum-free medium was replaced for starvation for 2 h, followed by treatment with AGEs (200 μg/mL) for 24 h, respectively. After the cells were treated, the expressions of pyroptosis-related proteins, GSDMD and apoptosis associated speck-like protein containing a CARD (ASC), were detected by Western blot (WB). The internal reference protein was β-actin. The WB was conducted according to the following steps.
(§2) The cells were rinsed twice with PBS, protein lysate (100 μL/well) was added, and the cells were lysed on ice for 30 min. The lysate was collected and centrifuged at 12000 rpm for 30 min at 4° C. After centrifugation, the supernatant protein was collected. The protein sample was mixed with the protein loading buffer at a 4:1 ratio and heated in a metal bath at 95° C. for 10 min, and the sample was stored at 4° C. […] Signals were detected by using enhanced chemiluminescent reagent, and the Western blot bands were quantitatively analyzed by Image J software. […]

The next data set addresses NACα protein (Homo sapiens, UniProt Q13765). Nature of the data set: Localized surface plasmon resonance (SPR) binding to NACα protein. The settings on record: DEPC-treated water, 25° C.; for Kd: ratio Koff/Kon. The text has this:
The affinity of DICAR-JP45 and DICAR-JP for binding to NACα protein was compared using localized surface plasmon resonance (SPR) technology (Wuhan Yangene Biological Technology Co., Ltd.).
Among them, the dissociation coefficient Koff is used to characterize the constant of the dissociation velocity of DICAR-JP45 and NACα protein, the binding coefficient Kon is used to characterize the constant of the binding velocity of DICAR-JP45 and NACα protein, and the affinity constant KD is the ratio of Koff/Kon, indicating the equilibrium dissociation constant between DICAR-JP45 and NACα protein.

For the next data set, the system named is GSDMD. Nature of the data set: Western blot of pyroptosis-related protein GSDMD in AGEs-treated AC16 cells. As to conditions: 40 nM, 24 h + AGEs 200 μg/mL, β-actin reference. In kind it is cell-based, human. The protocol:
as §1, §2
(A western blot detects proteins with antibodies after separation by electrophoresis.)

Another data set has as its system db/db mice. Briefly: Cardiac function of db/db mice after AAV9-DICAR-JP / AAV9-DICAR-JP45 tail vein injection. The data set is classed as in vivo, mouse. As to conditions: for E′/a value: db/db mice 1.14, DICAR-JP p<0.05, DICAR-JP45 no statistical significance. The text has this:
In the present disclosure, Shanghai Jikai Gene Medical Technology Co., Ltd. was commissioned to construct AAV9-DICAR-JP and AAV9-DICAR-JP45 viruses based on the sequences shown in SEQ ID NOS: 12 and 10, including CMV bGlobin EGFP-MCS-WPRE hGH polyA as a viral plasmid construction skeleton element sequence, a vector with the number GV412, and NheI and Hind III as cloning sites; the construction of microRNA up involves extending the precursor sequence of microRNA approximately 100 bp each upstream and downstream of the genome, ensuring the splicing efficiency of microRNA.
The mice were divided into db/m+AAV9-GFP (mock control, 5×10^11 vg), db/db+AAV9-GFP (5×10^11 vg), db/db+AAV9-DICAR-JP (5×10^11 vg), db/db+AAV9-DICAR-JP45 (5×10^11 vg), and db/db+dapagliflozin (DAPA, 1.5 mg/kg/d) groups. AAV9 viruses were injected into the tail vein of the mice at the age of 4 months. The mice in the db/db group were administered by gastric gavage with DAPA at the age of 5 months, and the mice in the db/m group were controls without gastric gavage of DAPA. The changes of cardiac function were evaluated by small animal echocardiography at the age of 5, 6 and 7 months, respectively, cardiac remodeling was evaluated by Masson staining, and myocardial hypertrophy was evaluated by wheat germ agglutinin (WGA) staining.

Data set [2] deals with AC16 cardiomyocytes treated with AGEs. Nature of the data set: Pharmacodynamics: CCK8 EC50 against AGEs-induced cardiomyocyte injury. The settings on record: for protective effect over concentration gradient (relative survival of cardiomyocytes): 1, 10, 20, 30, 40, 50 nM + AGEs 200 μg/mL, 24 h; for EC50: 1-50 nM, 24 h + AGEs 200 μg/mL, CCK8, fitting curve, read-out: half-maximal effect concentration (EC50). In kind it is cell-based, human. The protocol: The cell viability was detected by CCK8 assay after 24 h of cell treatment. The absorbance was measured at 450 nm using a microplate reader to calculate the half-maximal effect concentration (EC50), respectively. EC50 was calculated according to the following formula:
[formula] where the blank refers to the serum-free DMEM.

Where [3] appears, read: AAV9 tail vein, echocardiography.

Consider “CAACCUCCGGGGCCACAAUAGCGAGAUUUGUAAGAUUCCAGGGCCUCCCAG (listed as RNA, chemistry not given here) [DICAR-JP40]”, for which, in data set [1], the “protective effect on cardiomyocytes compared with DICAR-JP” value is “significant protective effect”, the relative cell viability result is recorded as “significantly higher than that of the model group” and the “protective effect at around 48 h” value is reported as “disappeared”.

In the case of “CAACCUCCGGGGCCACAAUAGCGAGAUUUGUAAGACUCUAGGGCCUCCCAG (chemistry not given here) [DICAR-JP45]”, the “suppression of expression of ASC” value in the data set on ASC is recorded as “more significantly compared with DICAR-JP”. Besides, in the data set with NACα protein, the Koff was 0.000152 s⁻¹; the Kon is 25000 M⁻¹ s⁻¹; the Kd (in general, a measure of binding affinity in units of concentration) is 6.09 nM. In addition, the “suppression of expression of GSDMD” value in the data set on GSDMD is recorded as “more significantly compared with DICAR-JP”. In data set [1], the efficacy duration result was “over 24 h”, the “protective effect on cardiomyocytes compared with DICAR-JP” value is listed as “significant protective effect”, the relative cell viability result is reported as “higher cardiomyocyte viability; also recorded: close to that of the untreated group” and the “protective effect at around 48 h” value is reported as “disappeared”. Moreover, the “improvement in mouse cardiac function” value in the data set with db/db mice (3 months after tail vein injection at age 4 months) was “a certain effect on improving cardiac function”. The “ejection fraction (EF) value” with db/db mice (AAV9 5×10^11 vg tail vein, 3 months after injection, db/db mice 57.5%) came out at 71.07%. In the data set with db/db mice (AAV9 5×10^11 vg tail vein), the “E′/a value” came to 1.45. For the same sequence, the “cardiomyocyte hypertrophy (WGA staining)” value in the data set with db/db mice (AAV9 tail vein) is “no significant effect on improving myocardial hypertrophy”. For the same sequence, in the data set on db/db mice (setting [3]), the FS value entry is on record as “improve” and the LVVs value entry was “improve”. Also, in data set [2], the “protective effect over concentration gradient (relative survival of cardiomyocytes)” value was “increase within the concentration gradient range” and the EC50 was 17.9 nM.

In the case of “CAACCUCCGGGGCCACAAUAGCGAGAUUUGUAAGACUCCAGGGCCUCCCAG (chemistry not given here) [DICAR-JP, reference compound]”, in the data set with NACα protein, the Koff is 0.000866 s⁻¹, the Kon turned out to be 22600 M⁻¹ s⁻¹ and the Kd was found to be 38.3 nM. For the same sequence, the “E′/a value” with db/db mice (AAV9 5×10^11 vg tail vein) is listed as 1.73. Besides, the “cardiomyocyte hypertrophy (WGA staining)” value in the data set with db/db mice (AAV9 tail vein) is “effectively inhibit cardiomyocyte hypertrophy”. In data set [2], the “protective effect over concentration gradient (relative survival of cardiomyocytes)” value is on record as “increase within the concentration gradient range” and the EC50 was 26.2 nM.

The values are drawn from patent publication US12473551B2, “Small RNA-based drug, preparation and use thereof in prophylaxis and/or treatment of cardiomyopathy” (SOUTHWEST MEDICAL UNIVERSITY, priority 2023, dated 2025).
